Patent US20090143285A1, “TARGET PROTEIN AND TARGET GENE FOR DRUG DISCOVERY AND SCREENING METHOD” (REVERSE PROTEOMICS RESEARCH INSTITUTE CO., LTD., priority 2005, published 2009)
Substitutions are numbered along the chain they refer to. Entries after “also recorded” stand apart in the source; their conditions may differ. Blank lines part the entries; values can stand above or below the molecule they belong to.

Columns and labels:
[1] = tested on: FLJXXXXX-derived proteins; assay: SEC/MS spin column interaction analysis of FLJXXXXX-derived proteins and various compounds (Tables 30-1 to 30-4); format: binding, human; conditions: SEC spin column filtrate, spectral intensity increased with doses of compound and protein
FLJ38897-derived protein = target: T1, FLJ38897-derived protein (Homo sapiens, UniProt P57764); assay: SEC/MS interaction analysis, FLJ38897-derived protein (GSDMDC1); format: binding; conditions: spin column method; mixture with protein vs buffer solution alone; data not shown
T1 construct: His-tag (N); made in house; host or cells: Escherichia coli BL21star(DE3)pLysS
T1 sequence (P57764 265-484): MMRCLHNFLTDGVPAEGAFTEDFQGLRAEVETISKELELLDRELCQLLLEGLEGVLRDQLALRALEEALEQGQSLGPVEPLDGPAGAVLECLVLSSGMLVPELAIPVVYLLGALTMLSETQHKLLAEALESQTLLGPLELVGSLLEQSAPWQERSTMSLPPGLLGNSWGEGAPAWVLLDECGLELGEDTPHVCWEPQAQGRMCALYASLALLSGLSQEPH
Description: (§1) To analyze the interactions between commonly used drugs and proteins expressed from human full-length cDNA clones while keeping both the proteins and the compounds in non-modified, non-immobilized state, size exclusion chromatography (SEC) and mass analysis were used in combination. The specific procedures are shown below.
(§2) The compound-protein mixture prepared in step 1 was subjected to chromatography using an SEC column, the compound and the protein were separated by SEC, and the compound that interacted with the bound compound or protein contained in the protein fraction was analyzed using a mass analyzer.
(§3) Protein concentrations were measured using BCA Protein Assay (PIERCE), in consideration of the purity calculated by SDS-PAGE.
(§4) Mass analysis was performed using LCQ DECA XP (Thermoelectron) or Q-TOF micro (Micromass), equipped with an ESI probe. The LC pump used was Agilent 1100 (Yokogawa Analytical Systems), and the autosampler used was HTC-PAL (CTC Analytics) equipped with a cooling stacker. The SEC column used was a micro-LC column or a 384-well spin column. […]
(§5) In the 384-well spin column method, Unifilter 100 (Whatman), packed with 10 μL (dry volume) of Bio-Gel P6 (BIO-RAD) and swollen with milliQ water, was used as the SEC column. […] The SEC spin column was mounted on an acetonitrile-aliquoted 384-well U-bottom plate and centrifuged; the SEC spin column filtrate, which is a protein fraction, was recovered in 50% acetonitrile. The protein precipitate produced by the acetonitrile was removed via centrifugation and filtration for deproteinization; the resulting filtrate was concentrated by centrifugal concentration and re-dissolved in 10 μL of 50% methanol to obtain a mass analysis sample. The mobile phase supplied to the mass analyzer was 0.1% formic acid/50% methanol solution in the positive ion mode, and 0.1% ammonia/50% methanol solution in the negative ion mode; these mobile phases were used at a flow rate of 40 μL/min. 2-μL of mass analysis samples were injected using an autosampler at 2-minute intervals; the mass spectral intensity of the compound was measured to retrieve the spectral intensity of the pharmaceutical compound contained in the SEC spin column filtrate (protein fraction eluted from SEC).

FLJ41991-derived protein = target: T2, FLJ41991-derived protein (Homo sapiens, UniProt P57764, E293G); assay: SEC/MS interaction analysis, FLJ41991-derived protein (GSDMDC1); format: binding
T2 construct: His-tag (N); made in house; host or cells: Escherichia coli BL21star(DE3)pLysS (pDEST17)
T2 sequence (P57764 265-484 E293G): T1 sequence (P57764 265-484) with E29G
Description: as §1, §2, §3, §4, §5

FLJ40298-derived protein = FLJ40298-derived protein (Homo sapiens, UniProt Q8N5S3, P254L/R275T); assay: SEC/MS interaction analysis, FLJ40298-derived protein (hypothetical protein FLJ40298); format: binding
Sequence of FLJ40298-derived protein (Q8N5S3 122-287 P254L/R275T): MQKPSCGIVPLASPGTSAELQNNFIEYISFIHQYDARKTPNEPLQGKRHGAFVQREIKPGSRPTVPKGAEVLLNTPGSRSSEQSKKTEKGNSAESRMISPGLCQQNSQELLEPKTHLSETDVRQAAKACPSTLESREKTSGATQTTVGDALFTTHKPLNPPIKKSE
Description: as §1, §2, §3, §4, §5

FLJ12857-derived protein = target: T3, FLJ12857-derived protein (Homo sapiens, UniProt O75781, T107A); assay: SEC/MS interaction analysis, FLJ12857-derived protein (Paralemmin; PALM); format: binding
T3 construct: His-tag (N); made in house; host or cells: Escherichia coli BL21star(DE3)pLysS
T3 sequence (O75781 74-343 isoform O75781-2 T107A): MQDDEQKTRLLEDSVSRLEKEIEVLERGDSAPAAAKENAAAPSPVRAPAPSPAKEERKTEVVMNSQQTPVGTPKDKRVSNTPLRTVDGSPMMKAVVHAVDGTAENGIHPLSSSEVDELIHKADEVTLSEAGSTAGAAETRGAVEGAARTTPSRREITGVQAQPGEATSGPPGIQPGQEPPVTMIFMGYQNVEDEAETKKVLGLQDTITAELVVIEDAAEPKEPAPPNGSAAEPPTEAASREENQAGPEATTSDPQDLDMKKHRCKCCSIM
Description: as §1, §2, §3, §4, §5

[2] = compound 12.5 μM, protein 10 μM
[3] = compound 12.5 μM, protein 25 μM
[4] = compound 62.5 μM, protein 10 μM
[5] = compound 62.5 μM, protein 25 μM
[6] = spin column method, doses of both compound and protein varied

interaction judged from mass spectrum peak intensity of the compound in the spin column filtrate (FLJ38897-derived protein): there was an interaction
spectrum intensity of the compound in the SEC spin column filtrate (FLJ41991-derived protein; compound 12.5 μM, protein 0 μM): 24899
spectrum intensity of the compound in the SEC spin column filtrate (FLJ41991-derived protein; compound 12.5 μM, protein 5 μM): 60014
spectrum intensity of the compound in the SEC spin column filtrate (FLJ41991-derived protein; [2]): 160855
spectrum intensity of the compound in the SEC spin column filtrate (FLJ41991-derived protein; [3]): 908771
spectrum intensity of the compound in the SEC spin column filtrate (FLJ41991-derived protein; compound 25 μM, protein 0 μM): 19274
spectrum intensity of the compound in the SEC spin column filtrate (FLJ41991-derived protein; compound 25 μM, protein 5 μM): 89714
spectrum intensity of the compound in the SEC spin column filtrate (FLJ41991-derived protein; compound 25 μM, protein 10 μM): 732296
spectrum intensity of the compound in the SEC spin column filtrate (FLJ41991-derived protein; compound 25 μM, protein 25 μM): 2056843
spectrum intensity of the compound in the SEC spin column filtrate (FLJ41991-derived protein; compound 62.5 μM, protein 0 μM): 27212
spectrum intensity of the compound in the SEC spin column filtrate (FLJ41991-derived protein; compound 62.5 μM, protein 5 μM): 361364
spectrum intensity of the compound in the SEC spin column filtrate (FLJ41991-derived protein; [4]): 2309029
spectrum intensity of the compound in the SEC spin column filtrate (FLJ41991-derived protein; [5]): 5171023
interaction judged from spectrum intensity of the compound in the SEC spin column filtrate (protein fraction eluted from SEC) (FLJ41991-derived protein; [6]): concentration-dependent interaction
SMILES: COc1ccc(CCN2CCC(Nc3nc4ccccc4n3Cc3ccc(F)cc3)CC2)cc1 [astemizole]
FLJ No of the derived protein with which the compound was judged to exhibit a concentration-dependent interaction [1]: FLJ38897; also recorded: FLJ41991

spectrum intensity of the compound in the SEC spin column filtrate (FLJ40298-derived protein; compound 12.5 μM, protein 0 μM): 202235
spectrum intensity of the compound in the SEC spin column filtrate (FLJ40298-derived protein; compound 12.5 μM, protein 5 μM): 285949
spectrum intensity of the compound in the SEC spin column filtrate (FLJ40298-derived protein; [2]): 263958
spectrum intensity of the compound in the SEC spin column filtrate (FLJ40298-derived protein; [3]): 299357
spectrum intensity of the compound in the SEC spin column filtrate (FLJ40298-derived protein; compound 25 μM, protein 0 μM): 557220
spectrum intensity of the compound in the SEC spin column filtrate (FLJ40298-derived protein; compound 25 μM, protein 5 μM): 1519215
spectrum intensity of the compound in the SEC spin column filtrate (FLJ40298-derived protein; compound 25 μM, protein 10 μM): 552560
spectrum intensity of the compound in the SEC spin column filtrate (FLJ40298-derived protein; compound 25 μM, protein 25 μM): 583103
spectrum intensity of the compound in the SEC spin column filtrate (FLJ40298-derived protein; compound 62.5 μM, protein 0 μM): 815144
spectrum intensity of the compound in the SEC spin column filtrate (FLJ40298-derived protein; compound 62.5 μM, protein 5 μM): 225597
spectrum intensity of the compound in the SEC spin column filtrate (FLJ40298-derived protein; [4]): 1509221
spectrum intensity of the compound in the SEC spin column filtrate (FLJ40298-derived protein; [5]): 2027848
interaction judged from spectrum intensity of the compound in the SEC spin column filtrate (protein fraction eluted from SEC) (FLJ40298-derived protein; [6]): concentration-dependent interaction
SMILES: CCCCOc1cc(C(=O)OCCN(CC)CC)ccc1N [benoxinate]
FLJ No of the derived protein with which the compound was judged to exhibit a concentration-dependent interaction [1]: FLJ40298

SMILES: CC(=O)O[C@H]1C[C@@H]2CC[C@@H]3[C@H](CC[C@@]4(C)[C@H]3C[C@H]([N+]3(C)CCCCC3)[C@@H]4OC(C)=O)[C@@]2(C)C[C@@H]1[N+]1(C)CCCCC1 [pancuronium bromide]
FLJ No of the derived protein with which the compound was judged to exhibit a concentration-dependent interaction [1]: FLJ12857
spectrum intensity of the compound in the SEC spin column filtrate (FLJ12857-derived protein; compound 12.5 μM, protein 0 μM): 50699
spectrum intensity of the compound in the SEC spin column filtrate (FLJ12857-derived protein; compound 12.5 μM, protein 5 μM): 65210
spectrum intensity of the compound in the SEC spin column filtrate (FLJ12857-derived protein; [2]): 163033
spectrum intensity of the compound in the SEC spin column filtrate (FLJ12857-derived protein; [3]): 193021
spectrum intensity of the compound in the SEC spin column filtrate (FLJ12857-derived protein; compound 25 μM, protein 0 μM): 170740
spectrum intensity of the compound in the SEC spin column filtrate (FLJ12857-derived protein; compound 25 μM, protein 5 μM): 491313
spectrum intensity of the compound in the SEC spin column filtrate (FLJ12857-derived protein; compound 25 μM, protein 10 μM): 747644
spectrum intensity of the compound in the SEC spin column filtrate (FLJ12857-derived protein; compound 25 μM, protein 25 μM): 725722
spectrum intensity of the compound in the SEC spin column filtrate (FLJ12857-derived protein; compound 62.5 μM, protein 0 μM): 1417386
spectrum intensity of the compound in the SEC spin column filtrate (FLJ12857-derived protein; compound 62.5 μM, protein 5 μM): 1918601
spectrum intensity of the compound in the SEC spin column filtrate (FLJ12857-derived protein; [4]): 2231237
spectrum intensity of the compound in the SEC spin column filtrate (FLJ12857-derived protein; [5]): 2511342
interaction judged from spectrum intensity of the compound in the SEC spin column filtrate (protein fraction eluted from SEC) (FLJ12857-derived protein; [6]): concentration-dependent interaction
